Laboratory results published in ChEMBL document CHEMBL1201862, “PubChem BioAssay data set” (2004).
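Five compound concentrations were applied to cells in 96-well plates for 48 hours; endpoints were derived by simple linear interpolation of the resulting dose-response curve. The concentration for 50% growth inhibition is given as GI50.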 Active and inactive are the calls of the source. Rule as the data show it: active = GI50 up to about 1.1 µM and inactive = higher.

Columns and labels:
Assay in all cases: NCI tumour cell line growth inhibition, 48 h
[1] = tested on: NCI-H460
[2] = tested on: RPMI-8226
[3] = tested on: SNB-19
[4] = tested on: SF-295
[5] = tested on: COLO 205
[6] = tested on: LOX IMVI
[7] = tested on: OVCAR-8
[8] = tested on: DMS-114
[9] = tested on: IGROV-1
[10] = tested on: LXFL 529
[11] = tested on: M19-MEL
[12] = tested on: DLD-1
[13] = tested on: HOP-62
[14] = tested on: SN12C
[15] = tested on: HOP-92
[16] = tested on: SK-MEL-28
[17] = tested on: SK-MEL-2
[18] = tested on: NCI-H226
[19] = tested on: CCRF-CEM
[20] = tested on: SNB-78
[21] = tested on: UACC-62
[22] = tested on: ACHN
[23] = tested on: A549
[24] = tested on: HT-29
[25] = tested on: OVCAR-3
[26] = tested on: SK-MEL-5
[27] = tested on: SF-268
[28] = tested on: MOLT-4
[29] = tested on: KM-20L2
[30] = tested on: EKVX
[31] = tested on: HL-60
[32] = tested on: HCT-116
[33] = tested on: HCC 2998
[34] = tested on: TK-10
[35] = tested on: Malme-3M
[36] = tested on: UACC-257
[37] = tested on: NCI-H23
[38] = tested on: RXF 393
[39] = tested on: SW-620
[40] = tested on: UO-31
[41] = tested on: U-251
[42] = tested on: SNB-75
[43] = tested on: KM12
[44] = tested on: OVCAR-4
[45] = tested on: 786-0
[46] = tested on: M14
[47] = tested on: OVCAR-5
[48] = tested on: DMS-273
[49] = tested on: SK-OV-3
[50] = tested on: K562
[51] = tested on: XF498
[52] = tested on: SR
[53] = tested on: HCT-15
[54] = tested on: NCI-H522
[55] = tested on: CAKI-1
[56] = tested on: SF-539

Compound: Cc1ccc(NC(=O)CCC/C(CC(=O)c2ccc(Br)cc2)=N/NC(=O)CC#N)cc1
- GI50 [1]: > 100 µM (inactive)
- GI50 [2]: > 100 µM (inactive)
- GI50 [3]: > 100 µM (inactive)
- GI50 [4]: > 100 µM (inactive)
- GI50 [5]: > 100 µM (inactive)
- GI50 [6]: > 100 µM (inactive)
- GI50 [7]: > 100 µM (inactive)
- GI50 [8]: > 100 µM (inactive)
- GI50 [9]: > 100 µM (inactive)
- GI50 [10]: > 100 µM (inactive)
- GI50 [11]: > 100 µM (inactive)
- GI50 [12]: > 100 µM (inactive)
- GI50 [13]: > 100 µM (inactive)
- GI50 [14]: > 100 µM (inactive)
- GI50 [15]: > 100 µM (inactive)
- GI50 [16]: > 100 µM (inactive)
- GI50 [17]: > 100 µM (inactive)
- GI50 [18]: > 100 µM (inactive)
- GI50 [19]: > 100 µM (inactive)
- GI50 [20]: > 100 µM (inactive)
- GI50 [21]: > 100 µM (inactive)
- GI50 [22]: > 100 µM (inactive)
- GI50 [23]: > 100 µM (inactive)
- GI50 [24]: > 100 µM (inactive)
- GI50 [25]: > 100 µM (inactive)
- GI50 [26]: > 100 µM (inactive)
- GI50 [27]: > 100 µM (inactive)
- GI50 [28]: > 100 µM (inactive)
- GI50 [29]: > 100 µM (inactive)
- GI50 [30]: > 100 µM (inactive)
- GI50 [31]: > 100 µM (inactive)
- GI50 [32]: > 100 µM (inactive)
- GI50 [33]: > 100 µM (inactive)
- GI50 [34]: > 100 µM (inactive)
- GI50 [35]: > 100 µM (inactive)
- GI50 [36]: > 100 µM (inactive)
- GI50 [37]: > 100 µM (inactive)
- GI50 [38]: > 100 µM (inactive)
- GI50 [39]: > 100 µM (inactive)
- GI50 [40]: > 100 µM (inactive)
- GI50 [41]: > 100 µM (inactive)
- GI50 [42]: > 100 µM (inactive)
- GI50 [43]: > 100 µM (inactive)
- GI50 [44]: > 100 µM (inactive)
- GI50 [45]: > 100 µM (inactive)
- GI50 [46]: > 100 µM (inactive)
- GI50 [47]: > 100 µM (inactive)

Compound: O=c1n(CC2CS2)c2ccccc2n1CC1CS1 (stereo unspecified)
- GI50 [2]: 27.2 µM (inactive)
- GI50 [5]: 62.4 µM (inactive)
- GI50 [6]: 30.2 µM (inactive)
- GI50 [8]: 30.5 µM (inactive)
- GI50 [9]: 39.2 µM (inactive)
- GI50 [48]: 31.9 µM (inactive)
- GI50 [10]: 31.2 µM (inactive)
- GI50 [11]: 42.8 µM (inactive)
- GI50 [13]: 39.5 µM (inactive)
- GI50 [14]: 87.7 µM (inactive)
- GI50 [15]: 42.3 µM (inactive)
- GI50 [17]: 28.9 µM (inactive)
- GI50 [49]: > 100 µM (inactive)
- GI50 [50]: 33.8 µM (inactive)
- GI50 [51]: > 100 µM (inactive)
- GI50 [19]: 21 µM (inactive)
- GI50 [21]: 33.3 µM (inactive)
- GI50 [22]: 45.7 µM (inactive)
- GI50 [25]: 43.8 µM (inactive)
- GI50 [27]: 57.7 µM (inactive)
- GI50 [28]: 18.8 µM (inactive)
- GI50 [30]: > 100 µM (inactive)
- GI50 [31]: 39.2 µM (inactive)
- GI50 [52]: 45.5 µM (inactive)
- GI50 [32]: 25.1 µM (inactive)
- GI50 [33]: 82.8 µM (inactive)
- GI50 [35]: 18.2 µM (inactive)
- GI50 [53]: 42.7 µM
- GI50 [39]: > 10 µM (inactive)
- GI50 [54]: 30.8 µM (inactive)
- GI50 [55]: 42.9 µM (inactive)
- GI50 [42]: 65.3 µM (inactive)
- GI50 [43]: 35.3 µM (inactive)
- GI50 [44]: 41.7 µM (inactive)
- GI50 [46]: 35.2 µM (inactive)

Compound: O=C(N/N=C/c1cc(Br)cc(Br)c1O)c1ccccc1O
- GI50 [1]: 0.64 µM (active)
- GI50 [3]: 0.912 µM (active)
- GI50 [4]: 0.9 µM (active)
- GI50 [5]: 3.34 µM (inactive)
- GI50 [6]: 0.399 µM (active)
- GI50 [7]: 0.463 µM (active)
- GI50 [9]: 0.867 µM (active)
- GI50 [13]: 0.832 µM (active)
- GI50 [15]: 1.2 µM (inactive)
- GI50 [16]: 0.708 µM (active)
- GI50 [17]: 0.433 µM (active)
- GI50 [18]: 0.32 µM (active)
- GI50 [49]: 1.06 µM (active)
- GI50 [21]: 0.368 µM (active)
- GI50 [22]: 0.436 µM (active)
- GI50 [23]: 1.1 µM (active)
- GI50 [24]: 3.38 µM (inactive)
- GI50 [25]: 0.273 µM (active)
- GI50 [26]: 1.07 µM (active)
- GI50 [27]: 0.469 µM (active)
- GI50 [28]: 0.575 µM (active)
- GI50 [29]: 2 µM (inactive)
- GI50 [30]: 1.18 µM (inactive)
- GI50 [31]: 0.15 µM (active)
- GI50 [52]: 0.258 µM (active)
- GI50 [32]: 1.82 µM (inactive)
- GI50 [33]: 1.03 µM (active)
- GI50 [34]: 0.944 µM (active)
- GI50 [56]: 0.61 µM (active)
- GI50 [35]: 1.56 µM (inactive)
- GI50 [36]: 2.26 µM (inactive)
- GI50 [53]: 0.422 µM
- GI50 [37]: 0.52 µM (active)
- GI50 [38]: 0.929 µM (active)
- GI50 [39]: 0.773 µM (active)
- GI50 [54]: 0.311 µM (active)
- GI50 [40]: 0.695 µM (active)
- GI50 [55]: 0.8 µM (active)
- GI50 [41]: 0.399 µM (active)
- GI50 [42]: 3.66 µM (inactive)
- GI50 [43]: 1.43 µM (inactive)
- GI50 [44]: 0.267 µM (active)
- GI50 [46]: 0.687 µM (active)
- GI50 [47]: 0.723 µM (active)
